Test results published in ChEMBL document CHEMBL1201862, “PubChem BioAssay data set” (2004).
Values joined by “and” are separate entries in the source; they are usually repeats but may differ in a detail not shown here. Identical values can stand only once. Active and inactive are the calls of the source.

How the values were obtained:
[1] = target: T1, Kappa-type opioid receptor (Homo sapiens, UniProt P41145); assay: SAR analysis of small molecule agonists of the kappa opioid receptor via a luminescent beta-arrestin assay - Set 3. [Related pubchem assays (depositor defined):AID1777, AID1785, AID1786, AID1966, AID2133, AID2136, AID2284, AID2500]; assay type: functional
[2] = target: FAD-linked sulfhydryl oxidase ALR (Homo sapiens, UniProt P55789); assay: inhibitors of human ALR sulfhydryl oxidase, dose response, biochemical, H2O2 detection, luminescence, cherry-pick (AID 493248)
[3] = target: Nuclear receptor subfamily 0 group B member 1 (Homo sapiens, UniProt P51843); assay: Luminescence-based cell-based high throughput dose response assay for inhibitors of the orphan nuclear receptor subfamily 0, group B, member 1 (DAX1; NR0B1). [Related pubchem assays (depositor defined):AID504766, AID504790]; assay type: functional
HEK293 [4] = assay: cells; assay type: functional, cell-based; conditions: Homo sapiens
HEK293 [5] = assay: inhibitors of LMP1-driven NF-kB reporter, dose response, cell-based, HEK293, luciferase, cherry-pick (AID 588343); assay type: functional; conditions: Homo sapiens
[6] = target: Dual specificity tyrosine-phosphorylation-regulated kinase 1A (Rattus norvegicus, UniProt Q63470); assay type: biochemical, Homo sapiens
Escherichia coli = assay: microbe, parasite or virus in culture
[7] = insulin promoter down-regulators in MIN6 cells, imaging, high-content screening, mouse beta cells (AID 1628); assay type: functional
[8] = cytotoxicity in MIN6 insulinoma cells, dose response, cytotoxicity control, cell-based, mouse insulinoma (AID 2122); assay type: functional;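 note: confirmatory high-throughput counterscreen run to flag cytotoxic compounds; mouse MIN-6 beta cells carrying an insulin promoter eGFP reporter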
SUMO E1/E2 = SUMO E1/E2 (Homo sapiens, UniProt P63279+Q9UBE0+Q9UBT2); assay: SAR analysis of SUMOylation using HTRF in an in-Vitro dose response assay. [Related pubchem assays (depositor defined):AID2006, AID2011, AID2018, AID2069, AID2658]; assay type: functional
[9] = target: T2, Voltage-gated N-type calcium channel alpha-1B subunit/Amyloid beta A4 precursor protein-binding family A member 1 (Homo sapiens, UniProt Q00975+Q02410); assay: disruptors of Mint-PDZ/N-type channel peptide interaction – biochemical, HTRF, set 2, SAR follow-up (AID 434980); assay type: functional
[10] = target: T2, Voltage-gated N-type calcium channel alpha-1B subunit/Amyloid beta A4 precursor protein-binding family A member 1; assay: disruptors of Mint-PDZ/N-type channel peptide interaction – biochemical, HTRF, SAR follow-up (AID 2489); assay type: functional
[11] = Counterscreen for AddAB inhibitors: absorbance-based bacterial cell-based high throughput dose response assay for inhibitors of bacterial viability. [Related pubchem assays (depositor defined):AID435030, AID449728, AID449731, AID488942, AID488955, AID488956]; assay type: functional
INS1 = assay: beta cell apoptosis inhibitors, cytokine rescue, dose response, luminescence, retest (AID 449756); assay type: functional, cell-based; conditions: Rattus norvegicus;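 note: cell death triggered by IL-1 beta plus TNF-alpha plus IFN-gamma mixture; protective hits raise ATP signal compared with cytokine alone wells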
[12] = system: Streptococcus sp. 'group A'; assay: growth inhibition of control SK(-) GAS strain, dose response, counter-screen for streptokinase expression inhibitor project, luminescence, kanamycin, BacTiterGlo, confirmation (AID 1900); assay type: functional, organism-based
[13] = target: T3, Serine/threonine-protein phosphatase (Candida dubliniensis (strain CD36 / CBS 7987 / NCPF 3949 / NRRLY-17841) (Yeast), UniProt B9W6M3); assay: calcineurin pathway inhibitors in yeast reporter, dose response, S. cerevisiae, CDRE-lacZ, luminescence, secondary (AID 2388); assay type: functional, cell-based;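 note: yeast reporter cells carrying a calcineurin-responsive lacZ construct stimulated with calcium chloride; luminescent beta-galactosidase reporter signal in whole cells rather than isolated phosphatase activity; potency for inhibition where a drop in reporter signal means calcineurin blockade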
T3 sequence (B9W6M3 whole entry): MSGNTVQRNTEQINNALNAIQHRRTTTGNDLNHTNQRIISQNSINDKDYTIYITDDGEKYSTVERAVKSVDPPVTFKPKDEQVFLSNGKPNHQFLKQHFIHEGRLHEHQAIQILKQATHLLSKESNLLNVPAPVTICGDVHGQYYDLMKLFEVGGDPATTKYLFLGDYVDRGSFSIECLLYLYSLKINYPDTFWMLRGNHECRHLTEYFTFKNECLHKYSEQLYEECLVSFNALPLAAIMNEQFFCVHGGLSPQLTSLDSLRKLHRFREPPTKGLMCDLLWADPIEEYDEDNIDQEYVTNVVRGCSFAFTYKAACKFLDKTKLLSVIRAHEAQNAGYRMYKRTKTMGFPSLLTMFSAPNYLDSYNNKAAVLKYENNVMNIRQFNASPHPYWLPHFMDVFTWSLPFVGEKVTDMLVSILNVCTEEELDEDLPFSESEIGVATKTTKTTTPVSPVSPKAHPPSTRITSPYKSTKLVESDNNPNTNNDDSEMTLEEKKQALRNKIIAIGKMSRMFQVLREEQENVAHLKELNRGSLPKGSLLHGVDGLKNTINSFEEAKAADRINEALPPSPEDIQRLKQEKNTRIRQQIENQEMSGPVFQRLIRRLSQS

Exodeoxyribonuclease V = Exodeoxyribonuclease V (Escherichia coli (strain K12), UniProt P04993+P07648+P08394); assay: E. coli RecBCD inhibitors, dose response, counter-screen for AddAB inhibitor project, absorbance, V66 E. coli, mutant T4 phage (AID 492957); assay type: functional, cell-based, Escherichia coli str. K-12 substr. MG1655
[14] = C. albicans growth with fluconazole, confirmation, fluorescence, retest (AID 2467); assay type: functional, cell-based
[15] = target: T1, Kappa-type opioid receptor; assay type: functional
Streptococcus = assay: Group A Streptococcus viability loss, dose response, counter-screen for streptokinase expression inhibitor project, luminescence, BacTiterGlo (AID 1915); assay type: functional, organism-based;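 note: potency for reduction of bacterial viability or growth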
[16] = target: T1, Kappa-type opioid receptor; assay type: functional; remark: listed apart in the source
[17] = target: ATP-dependent molecular chaperone HSP82 (Candida albicans (strain WO-1) (Yeast), UniProt C4YTQ8); assay: loss of DOC-induced GRE-beta-galactosidase reporter signal, dose response, Hsp90 inhibitor project, S. cerevisiae, luminescence (AID 2400); assay type: functional, cell-based;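 note: beta-galactosidase luminescence from glucocorticoid response element reporter as proxy for Hsp90 function; inhibitor potency where signal loss means Hsp90 inhibition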
[18] = cytotoxicity toward NIH3T3 fibroblasts, dose response, counter-screen, cell-based, ATP luminescence, mouse fibroblasts (AID 2010); assay type: functional;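 note: cells exposed to compound for about 90 hours before reading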
[19] = inhibitors of intracellular T. cruzi replication, confirmation, NIH3T3 host cells, beta-gal luminescence (AID 2044); assay type: functional, cell-based;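 note: intracellular parasites grown in NIH/3T3 mouse fibroblasts as host cells; luminescent beta-galactosidase reporter signal from transgenic T. cruzi replicating inside host cells; inhibitors lower the luminescence signal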
Beta-galactosidase = Beta-galactosidase (Escherichia coli, UniProt Q8VNN2); assay type: functional
[20] = NIH-3T3 fibroblast cytotoxicity, dose response, cytotoxicity control, cell-based, fluorescence, Alamar Blue, secondary assay (AID 2327); assay type: functional;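 note: NIH-3T3 mouse fibroblasts cultured with fluconazole at 8 µg/mL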
Phospholipase D2 = Phospholipase D2 (Homo sapiens, UniProt O14939); assay: PLD2 purified enzyme concentration response. [Related pubchem assays (depositor defined):AID588854]; assay type: functional
Phospholipase D1 = target: T4, Phospholipase D1 (Homo sapiens, UniProt Q13393); assay: PLD1 purified enzyme concentration response. [Related pubchem assays (depositor defined):AID588854]; assay type: functional
T4 sequence (Q13393 whole entry): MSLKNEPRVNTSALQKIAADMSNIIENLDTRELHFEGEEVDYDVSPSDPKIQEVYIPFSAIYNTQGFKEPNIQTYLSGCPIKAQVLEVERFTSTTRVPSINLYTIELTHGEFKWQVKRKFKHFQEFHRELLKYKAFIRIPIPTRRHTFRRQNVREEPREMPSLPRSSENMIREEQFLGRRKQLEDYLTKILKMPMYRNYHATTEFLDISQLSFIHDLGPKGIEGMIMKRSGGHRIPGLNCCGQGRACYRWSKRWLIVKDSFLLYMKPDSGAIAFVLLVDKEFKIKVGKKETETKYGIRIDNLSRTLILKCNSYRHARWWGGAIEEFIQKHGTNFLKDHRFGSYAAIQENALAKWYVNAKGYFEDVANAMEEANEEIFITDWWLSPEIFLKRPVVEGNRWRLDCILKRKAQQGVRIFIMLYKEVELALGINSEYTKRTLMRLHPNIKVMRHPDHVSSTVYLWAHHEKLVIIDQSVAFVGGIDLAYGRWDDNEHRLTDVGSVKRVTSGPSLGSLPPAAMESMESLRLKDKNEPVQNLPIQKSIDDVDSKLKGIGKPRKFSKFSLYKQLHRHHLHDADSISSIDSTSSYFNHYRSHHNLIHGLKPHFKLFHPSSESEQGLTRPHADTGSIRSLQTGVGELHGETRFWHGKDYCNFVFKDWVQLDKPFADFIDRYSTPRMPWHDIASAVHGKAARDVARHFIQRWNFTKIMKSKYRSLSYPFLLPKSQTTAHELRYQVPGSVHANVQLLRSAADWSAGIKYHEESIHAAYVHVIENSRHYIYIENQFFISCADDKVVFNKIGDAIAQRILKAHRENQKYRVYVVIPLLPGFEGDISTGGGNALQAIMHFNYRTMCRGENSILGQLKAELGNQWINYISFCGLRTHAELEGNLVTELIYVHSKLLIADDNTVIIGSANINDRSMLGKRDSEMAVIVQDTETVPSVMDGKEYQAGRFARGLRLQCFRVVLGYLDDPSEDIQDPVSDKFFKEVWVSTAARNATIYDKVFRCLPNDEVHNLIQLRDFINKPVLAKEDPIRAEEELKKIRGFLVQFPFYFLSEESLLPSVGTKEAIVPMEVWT

[21] = target: T5, Mannose-6-phosphate isomerase (Homo sapiens, UniProt P34949); assay: PMI enzyme inhibitors, confirmation, biochemical, fluorescence intensity (AID 1535)
T5 sequence (P34949 whole entry): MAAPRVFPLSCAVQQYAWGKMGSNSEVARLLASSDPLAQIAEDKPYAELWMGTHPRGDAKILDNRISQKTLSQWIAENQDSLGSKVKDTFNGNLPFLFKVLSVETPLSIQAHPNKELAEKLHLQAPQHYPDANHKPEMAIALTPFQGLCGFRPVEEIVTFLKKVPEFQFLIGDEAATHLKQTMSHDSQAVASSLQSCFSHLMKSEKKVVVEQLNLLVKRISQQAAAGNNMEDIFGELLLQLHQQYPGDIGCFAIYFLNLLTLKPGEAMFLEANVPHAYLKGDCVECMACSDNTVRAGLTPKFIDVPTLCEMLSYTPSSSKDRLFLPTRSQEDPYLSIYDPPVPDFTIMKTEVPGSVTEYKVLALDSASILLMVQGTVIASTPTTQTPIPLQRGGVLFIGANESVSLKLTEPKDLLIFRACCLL

BJ [22] = assay: cells; assay type: functional, cell-based; conditions: Homo sapiens
[23] = cytotoxicity toward DRD oncogenic fibroblasts, dose response, cell-based, non-viral oncogenic, luminescence (AID 1934); assay type: functional; conditions: Homo sapiens
BJ [24] = assay: cytotoxicity toward BJ-TERT fibroblasts, dose response, cell-based, RAS-independent, luminescence (AID 1933); assay type: functional; conditions: Homo sapiens
[25] = Luminescence Cell-Based Dose Retest to Confirm Inhibitors of Cancer Stem Cells. [Related pubchem assays (depositor defined):AID2717, AID2721]; assay type: functional; conditions: Homo sapiens
BJ [26] = assay: cytotoxicity toward BJ-TERT-LT-ST fibroblasts, dose response, cell-based, RAS-independent, luminescence (AID 1935); assay type: functional; conditions: Homo sapiens;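 note: BJ fibroblasts immortalized with TERT plus LT and ST oncogenes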

Chain of SUMO E1/E2 (Q9UBE0 whole entry): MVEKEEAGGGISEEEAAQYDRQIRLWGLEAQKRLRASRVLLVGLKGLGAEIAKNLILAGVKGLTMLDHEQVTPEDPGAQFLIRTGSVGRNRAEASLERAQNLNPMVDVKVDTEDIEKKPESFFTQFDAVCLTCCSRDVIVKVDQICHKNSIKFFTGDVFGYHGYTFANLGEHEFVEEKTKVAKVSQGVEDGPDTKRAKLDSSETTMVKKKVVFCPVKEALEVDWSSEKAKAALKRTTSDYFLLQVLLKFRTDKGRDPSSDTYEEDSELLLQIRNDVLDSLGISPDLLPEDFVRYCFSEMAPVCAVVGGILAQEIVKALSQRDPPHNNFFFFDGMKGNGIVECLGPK
Chain of SUMO E1/E2 (Q9UBT2 whole entry): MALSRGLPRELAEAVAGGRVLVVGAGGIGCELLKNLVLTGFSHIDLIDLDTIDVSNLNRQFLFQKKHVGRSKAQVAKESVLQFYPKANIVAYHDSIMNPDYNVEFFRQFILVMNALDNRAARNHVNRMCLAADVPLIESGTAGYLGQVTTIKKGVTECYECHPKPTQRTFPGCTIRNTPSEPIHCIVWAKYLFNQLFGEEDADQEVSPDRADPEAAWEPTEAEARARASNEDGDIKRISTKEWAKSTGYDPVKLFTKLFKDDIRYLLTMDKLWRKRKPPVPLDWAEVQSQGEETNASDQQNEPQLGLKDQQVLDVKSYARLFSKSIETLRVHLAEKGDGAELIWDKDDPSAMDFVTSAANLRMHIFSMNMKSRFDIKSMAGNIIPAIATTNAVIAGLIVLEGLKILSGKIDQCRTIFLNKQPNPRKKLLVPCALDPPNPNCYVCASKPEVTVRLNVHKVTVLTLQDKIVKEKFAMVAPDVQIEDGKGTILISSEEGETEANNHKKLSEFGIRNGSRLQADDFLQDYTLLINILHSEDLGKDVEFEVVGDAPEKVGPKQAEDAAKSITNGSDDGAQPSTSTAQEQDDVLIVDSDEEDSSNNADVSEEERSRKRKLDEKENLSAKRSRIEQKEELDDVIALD
Chain of SUMO E1/E2 (P63279 whole entry): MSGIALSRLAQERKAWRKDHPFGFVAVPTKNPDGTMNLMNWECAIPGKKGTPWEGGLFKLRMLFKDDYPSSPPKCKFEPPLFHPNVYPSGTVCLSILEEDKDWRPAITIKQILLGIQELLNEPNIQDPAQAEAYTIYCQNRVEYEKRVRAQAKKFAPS
T2 sequence (Q00975 whole entry): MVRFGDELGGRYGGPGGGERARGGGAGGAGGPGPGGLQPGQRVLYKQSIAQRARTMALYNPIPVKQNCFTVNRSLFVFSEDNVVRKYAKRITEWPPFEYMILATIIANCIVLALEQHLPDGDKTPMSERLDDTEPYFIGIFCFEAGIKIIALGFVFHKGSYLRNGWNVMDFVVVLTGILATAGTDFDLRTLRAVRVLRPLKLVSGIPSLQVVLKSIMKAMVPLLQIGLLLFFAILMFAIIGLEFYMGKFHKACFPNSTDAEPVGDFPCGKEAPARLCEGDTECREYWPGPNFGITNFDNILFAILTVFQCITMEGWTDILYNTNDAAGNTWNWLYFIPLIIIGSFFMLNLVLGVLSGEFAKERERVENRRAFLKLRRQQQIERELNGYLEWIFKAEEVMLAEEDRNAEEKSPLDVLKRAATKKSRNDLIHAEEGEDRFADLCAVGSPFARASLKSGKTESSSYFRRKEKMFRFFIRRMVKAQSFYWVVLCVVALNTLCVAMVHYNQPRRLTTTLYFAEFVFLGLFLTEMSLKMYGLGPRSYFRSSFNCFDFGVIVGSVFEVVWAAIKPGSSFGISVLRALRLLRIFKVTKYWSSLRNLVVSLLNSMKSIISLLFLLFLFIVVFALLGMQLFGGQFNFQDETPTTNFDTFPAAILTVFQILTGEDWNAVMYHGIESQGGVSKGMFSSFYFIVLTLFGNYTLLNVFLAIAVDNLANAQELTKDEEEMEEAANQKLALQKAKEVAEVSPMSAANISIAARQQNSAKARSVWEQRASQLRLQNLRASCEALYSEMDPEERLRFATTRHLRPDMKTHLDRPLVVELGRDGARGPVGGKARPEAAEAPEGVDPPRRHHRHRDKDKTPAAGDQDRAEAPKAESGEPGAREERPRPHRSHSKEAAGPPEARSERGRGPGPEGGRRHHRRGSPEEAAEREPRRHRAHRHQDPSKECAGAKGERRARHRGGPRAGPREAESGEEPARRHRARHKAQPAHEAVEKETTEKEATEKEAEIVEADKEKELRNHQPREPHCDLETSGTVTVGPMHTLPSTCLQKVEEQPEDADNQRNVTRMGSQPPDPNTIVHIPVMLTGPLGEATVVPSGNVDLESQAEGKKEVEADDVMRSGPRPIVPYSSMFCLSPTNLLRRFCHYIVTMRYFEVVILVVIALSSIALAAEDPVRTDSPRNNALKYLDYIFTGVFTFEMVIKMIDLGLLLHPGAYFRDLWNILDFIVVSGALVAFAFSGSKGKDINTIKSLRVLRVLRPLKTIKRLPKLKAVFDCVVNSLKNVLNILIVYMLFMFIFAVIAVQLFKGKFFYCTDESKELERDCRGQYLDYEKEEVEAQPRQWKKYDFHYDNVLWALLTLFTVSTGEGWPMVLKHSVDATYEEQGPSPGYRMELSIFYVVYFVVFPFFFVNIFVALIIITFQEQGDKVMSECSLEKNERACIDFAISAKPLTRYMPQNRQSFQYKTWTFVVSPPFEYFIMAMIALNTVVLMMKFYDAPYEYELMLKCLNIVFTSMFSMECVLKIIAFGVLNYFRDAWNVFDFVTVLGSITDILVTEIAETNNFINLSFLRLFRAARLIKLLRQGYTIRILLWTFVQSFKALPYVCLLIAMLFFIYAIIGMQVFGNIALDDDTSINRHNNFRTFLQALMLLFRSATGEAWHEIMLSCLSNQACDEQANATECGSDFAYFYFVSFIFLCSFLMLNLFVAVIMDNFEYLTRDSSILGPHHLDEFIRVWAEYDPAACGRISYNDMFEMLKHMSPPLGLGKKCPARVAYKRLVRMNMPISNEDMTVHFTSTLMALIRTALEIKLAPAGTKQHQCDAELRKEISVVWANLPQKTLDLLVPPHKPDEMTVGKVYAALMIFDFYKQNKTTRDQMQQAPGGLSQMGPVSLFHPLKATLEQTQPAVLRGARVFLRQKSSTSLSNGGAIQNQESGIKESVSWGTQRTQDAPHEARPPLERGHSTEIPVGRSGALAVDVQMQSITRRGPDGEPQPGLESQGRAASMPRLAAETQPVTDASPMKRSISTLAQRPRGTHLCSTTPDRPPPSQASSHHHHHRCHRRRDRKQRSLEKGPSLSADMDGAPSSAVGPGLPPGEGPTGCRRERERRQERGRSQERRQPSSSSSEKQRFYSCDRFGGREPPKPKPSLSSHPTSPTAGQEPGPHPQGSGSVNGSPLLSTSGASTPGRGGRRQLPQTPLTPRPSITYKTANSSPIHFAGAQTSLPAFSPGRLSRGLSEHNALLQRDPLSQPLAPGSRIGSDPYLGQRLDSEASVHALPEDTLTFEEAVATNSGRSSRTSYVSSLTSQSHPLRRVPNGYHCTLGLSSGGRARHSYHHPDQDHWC
T2 sequence (Q02410 whole entry): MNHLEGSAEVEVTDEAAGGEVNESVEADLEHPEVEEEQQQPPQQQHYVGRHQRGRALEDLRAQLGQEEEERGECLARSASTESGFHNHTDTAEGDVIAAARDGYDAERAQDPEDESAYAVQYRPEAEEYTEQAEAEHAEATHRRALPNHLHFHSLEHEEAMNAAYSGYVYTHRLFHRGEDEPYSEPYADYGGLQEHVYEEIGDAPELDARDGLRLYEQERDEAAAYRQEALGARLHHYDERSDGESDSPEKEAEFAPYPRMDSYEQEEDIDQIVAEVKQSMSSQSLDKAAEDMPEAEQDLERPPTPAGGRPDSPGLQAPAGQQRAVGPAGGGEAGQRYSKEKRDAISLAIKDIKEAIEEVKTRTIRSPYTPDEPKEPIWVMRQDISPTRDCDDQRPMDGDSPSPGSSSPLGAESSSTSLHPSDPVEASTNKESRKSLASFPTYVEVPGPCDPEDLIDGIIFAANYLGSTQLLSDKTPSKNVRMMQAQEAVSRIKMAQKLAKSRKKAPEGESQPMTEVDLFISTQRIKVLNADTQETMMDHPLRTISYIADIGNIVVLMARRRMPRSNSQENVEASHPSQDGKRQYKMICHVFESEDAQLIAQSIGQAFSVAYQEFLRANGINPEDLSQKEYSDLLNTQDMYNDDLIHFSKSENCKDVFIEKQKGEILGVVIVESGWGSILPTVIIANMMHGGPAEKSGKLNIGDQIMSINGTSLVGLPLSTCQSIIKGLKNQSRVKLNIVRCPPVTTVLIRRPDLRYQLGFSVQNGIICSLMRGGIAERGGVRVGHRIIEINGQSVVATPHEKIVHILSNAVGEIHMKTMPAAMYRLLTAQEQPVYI
T1 sequence (P41145 whole entry): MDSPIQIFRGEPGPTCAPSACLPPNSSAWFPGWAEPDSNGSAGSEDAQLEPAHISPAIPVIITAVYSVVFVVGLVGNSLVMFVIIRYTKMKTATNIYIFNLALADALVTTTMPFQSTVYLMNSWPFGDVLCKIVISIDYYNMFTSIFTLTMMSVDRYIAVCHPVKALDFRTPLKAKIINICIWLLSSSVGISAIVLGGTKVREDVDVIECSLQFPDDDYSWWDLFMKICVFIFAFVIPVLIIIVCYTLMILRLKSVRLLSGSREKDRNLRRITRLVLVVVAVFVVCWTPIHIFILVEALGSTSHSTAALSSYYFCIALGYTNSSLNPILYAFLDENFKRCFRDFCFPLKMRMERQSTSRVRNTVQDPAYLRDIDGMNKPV
Chain of FAD-linked sulfhydryl oxidase ALR (P55789 whole entry): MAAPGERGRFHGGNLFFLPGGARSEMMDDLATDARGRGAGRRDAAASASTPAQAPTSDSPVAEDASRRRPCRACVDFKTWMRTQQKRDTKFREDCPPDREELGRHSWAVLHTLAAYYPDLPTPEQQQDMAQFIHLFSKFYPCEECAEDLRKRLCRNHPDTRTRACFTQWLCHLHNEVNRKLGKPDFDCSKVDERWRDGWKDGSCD

O=C(c1ccccn1)N(Cc1cc2cc(Cl)ccc2[nH]c1=O)CC1CC1
EC50 [1]: > 20 µM (inactive)

COc1ccc(/C=N/Nc2nc3ccccc3[nH]2)c(OC)c1OC
AC50 [2]: 278 nM (active)
IC50 [3]: > 67.5 µM (inactive)
IC50 (HEK293 [4]): > 67.5 µM (inactive)

CC1=C(C(=O)OCc2ccc3c(c2)OCO3)C(c2ccccc2)NC(=O)N1 (centres undefined)
AC50 (HEK293 [5]): 6.3 µM (active)
AC50 [6]: 695 nM (active)

CC(Sc1nnc(-c2ccccc2F)n1C1CC1)C(=O)NCc1ccco1 (centres undefined)
AC50 (Escherichia coli): 24.4 µM (active)

Cc1ccc2nc(NC(=O)c3ccc(Cl)s3)sc2c1
IC50 [3]: > 67.5 µM (inactive)
IC50 (HEK293 [4]): > 67.5 µM (inactive)

Cc1c(Cl)cccc1NC(=O)CCC(=O)N/N=C/c1ccc[nH]1
IC50 [7]: 2.31 µM (active)
IC50 [8]: 2.36 µM (active)

COc1ccc(CNC(=O)COC(=O)c2cc(-c3ccco3)nc3ccccc23)c(OC)c1
IC50 (SUMO E1/E2): 14.7 µM (active)
IC50 [9]: 11.1 µM (active)
IC50 [10]: 23 µM (active)

COc1ccccc1NC(=O)COC(=O)c1cc(-c2ccco2)nc2ccccc12
IC50 (SUMO E1/E2): 16 µM (active) and 56.7 µM (active)
IC50 [9]: 6.66 µM (active) and 12.5 µM (active)
IC50 [10]: 21.5 µM (active) and > 56.8 µM (inactive)

Oc1ccc(N=Nc2ccc3c(c2)OCCO3)c2ncccc12
IC50 [11]: > 119 µM (inactive)
AC50 (INS1): 2.32 µM (active)
EC50 [12]: 682 nM (active)
EC50 [13]: > 180 µM (inactive)
IC50 (Exodeoxyribonuclease V): > 119 µM (inactive)
EC50 [14]: 872 nM (active)
IC50 [15]: 4.93 µM (active)
EC50 (Streptococcus): 2.27 µM (active)
IC50 [16]: > 32 µM
EC50 [17]: 11.7 µM (active)
EC50 [18]: 4.43 µM (active)
EC50 [19]: 910 nM (active)
EC50 (Beta-galactosidase): 25.3 µM (active)
EC50 [20]: > 150 µM (inconclusive)

O=C(NCCN1CCC2(CC1)C(=O)NCN2c1ccc(F)cc1)c1cnc2ccccc2c1
IC50 (Phospholipase D2): 140 nM (active)
IC50 (Phospholipase D1): 20 µM (active)

O=C(NCCN1CCC2(CC1)C(=O)NCN2c1ccccc1)c1cc2ccccc2s1
IC50 (Phospholipase D2): 92 nM (active)
IC50 (Phospholipase D1): 4 µM (active)

Clc1nss/c1=N\c1ncccn1
IC50 [21]: > 100 µM (inactive)

O=C(CCC1CCCC1)Nc1ccc(C(=O)NCc2cccnc2)cc1
EC50 (BJ [22]): 672 nM (inconclusive)
EC50 [23]: > 150 µM (not active)
IC50 [7]: 0.331 µM (active)
EC50 (BJ [24]): > 150 µM (not active)
AC50 [25]: 882 nM (active)
IC50 [8]: > 16 µM (inactive)
EC50 (BJ [26]): 1.53 µM (inconclusive)

COc1cccc(C(=O)Nc2cc([N+](=O)[O-])ccc2N2CCN(C)CC2)c1
AC50 (Escherichia coli): 25.5 µM (active)
